Reference: PubChem BioAssay AID248 (DTP/NCI, 2004)
Several values for one entry are separate records, joined by “and”; a condition that tells them apart may be missing. Equal values may be shown once. Toxic doses and inconclusive results are not listed. Rule as the data show it: active = T/C of 150% or more; inactive = T/C below 125%.

System: L1210 leukemia ip in BDF1 mice, survival T/C
Experiment: NCI In Vivo Anticancer Drug Screen. Data for tumor model L1210 Leukemia (intraperitoneal) in B6D2F1 (BDF1) mice
Conditions: endpoint: mean survival time, higher = longer survival
Method in brief: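 Survival endpoint. Drug-treated group vs vehicle group, expressed as T divided by C. Tumor passaged by transplantation.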

[1] = dose: 50.0 mg/kg/injection, schedule: Q01DX009 (ip), vehicle: saline with Tween-80
[2] = dose: 100.0 mg/kg/injection, schedule: Q01DX009 (ip), vehicle: saline with Tween-80
[3] = dose: 100.0 mg/kg/injection, schedule: Q04DX003 (ip), vehicle: saline with Tween-80
[4] = dose: 200.0 mg/kg/injection, schedule: Q01DX009 (ip), vehicle: saline with Tween-80
[5] = dose: 200.0 mg/kg/injection, schedule: Q04DX003 (ip), vehicle: saline with Tween-80
[6] = dose: 400.0 mg/kg/injection, schedule: Q01DX009 (ip), vehicle: saline with Tween-80
[7] = dose: 400.0 mg/kg/injection, schedule: Q04DX003 (ip), vehicle: saline with Tween-80
[8] = dose: 100.0 mg/kg/injection, schedule: Q01DX009 (ip), vehicle: Klucel (hydroxypropylcellulose) (HPC)
[9] = dose: 100.0 mg/kg/injection, schedule: Q04DX002 (ip), vehicle: Klucel (hydroxypropylcellulose) (HPC)
[10] = dose: 200.0 mg/kg/injection, schedule: Q01DX009 (ip), vehicle: Klucel (hydroxypropylcellulose) (HPC)
[11] = dose: 200.0 mg/kg/injection, schedule: Q04DX002 (ip), vehicle: Klucel (hydroxypropylcellulose) (HPC)
[12] = dose: 400.0 mg/kg/injection, schedule: Q01DX009 (ip), vehicle: Klucel (hydroxypropylcellulose) (HPC)
[13] = dose: 400.0 mg/kg/injection, schedule: Q04DX002 (ip), vehicle: Klucel (hydroxypropylcellulose) (HPC)
[14] = dose: 100.0 mg/kg/injection, schedule: Q01DX001 (ip), vehicle: saline
[15] = dose: 200.0 mg/kg/injection, schedule: Q01DX001 (ip), vehicle: saline
[16] = dose: 400.0 mg/kg/injection, schedule: Q01DX001 (ip), vehicle: saline
[17] = dose: 100.0 mg/kg/injection, schedule: Q04DX003 (ip), vehicle: Klucel (hydroxypropylcellulose) (HPC)
[18] = dose: 400.0 mg/kg/injection, schedule: Q04DX003 (ip), vehicle: Klucel (hydroxypropylcellulose) (HPC)
[19] = dose: 200.0 mg/kg/injection, schedule: Q04DX003 (ip), vehicle: Klucel (hydroxypropylcellulose) (HPC)

Measured: T/C

Cc1ccc(NS(=O)(=O)c2ccc(Br)cc2)c(C)c1
inactive: dose: 25.0 mg/kg/injection, schedule: Q01DX009 (ip), vehicle: saline with Tween-80 98 % of control | [1] 96 % of control | [2] 96 % of control | [3] 98 % of control | [4] 98 % of control | [5] 91 % of control | [6] 101 % of control | [7] 93 % of control

CC(C)=NNC(=O)Nc1ccc(C)c(Cl)c1
inactive: dose: 50.0 mg/kg/injection, schedule: Q01DX001 (ip), vehicle: Klucel (hydroxypropylcellulose) (HPC) 90 % of control | dose: 100.0 mg/kg/injection, schedule: Q01DX001 (ip), vehicle: Klucel (hydroxypropylcellulose) (HPC) 103 % of control and 90 % of control | [8] 102 % of control | [9] 101 % of control and 86 % of control | dose: 200.0 mg/kg/injection, schedule: Q01DX001 (ip), vehicle: Klucel (hydroxypropylcellulose) (HPC) 92 % of control | [10] 93 % of control | [11] 98 % of control and 100 % of control | dose: 400.0 mg/kg/injection, schedule: Q01DX001 (ip), vehicle: Klucel (hydroxypropylcellulose) (HPC) 87 % of control | [12] 86 % of control | [13] 95 % of control and 89 % of control

CCCCCCCCCCCCc1ccccc1
inactive: dose: 50.0 mg/kg/injection, schedule: Q01DX001 (ip), vehicle: saline 91 % of control | [14] 97 % of control | [15] 97 % of control | [16] 101 % of control

CCN(CC)c1cc(C(C)(C)C)cc(C(C)(C)C)c1
inactive: dose: 100.0 mg/kg/injection, schedule: Q04DX003 (ip), vehicle: saline sonified 114 % of control | dose: 200.0 mg/kg/injection, schedule: Q04DX003 (ip), vehicle: saline sonified 94 % of control | dose: 400.0 mg/kg/injection, schedule: Q04DX003 (ip), vehicle: saline sonified 101 % of control

ClC(c1ccccc1)c1nc2ccccc2[nH]1 (stereo not given)
inactive: [14] 94 % of control | [15] 96 % of control

CCCCN(C)N=Nc1c[nH]c(=O)[nH]c1=O
inactive: dose: 75.0 mg/kg/injection, schedule: Q01DX001 (ip), vehicle: other 95 % of control

N#Cc1ccccc1C(Cl)(Cl)Cl
inactive: [9] 100 % of control | [11] 106 % of control | [13] 100 % of control

ClC1(Cl)CC2CC1C1C3CC(C4OC34)C21 (stereo not given)
inactive: dose: 50.0 mg/kg/injection, schedule: Q01DX001 (ip), vehicle: carboxymethylcellulose (CMC) 94 % of control and 119 % of control | dose: 100.0 mg/kg/injection, schedule: Q01DX001 (ip), vehicle: carboxymethylcellulose (CMC) 94 % of control | dose: 200.0 mg/kg/injection, schedule: Q01DX001 (ip), vehicle: carboxymethylcellulose (CMC) 105 % of control | dose: 400.0 mg/kg/injection, schedule: Q01DX001 (ip), vehicle: carboxymethylcellulose (CMC) 98 % of control

S=P(c1ccccc1)(N1CCN(c2ccc(Cl)cc2)CC1)N1CCN(c2ccc(Cl)cc2)CC1
inactive: [14] 88 % of control | [8] 102 % of control | [17] 95 % of control | [10] 91 % of control | [16] 90 % of control | [12] 93 % of control | [18] 92 % of control

CC(=O)Oc1ccc2c(c1)C(=O)C(Br)C1C2CCC2(C)C(OC(C)=O)CCC12 (stereo not given)
inactive: dose: 30.0 mg/kg/injection, schedule: Q01DX015 (sc), vehicle: steriod suspending solution 96 % of control | dose: 60.0 mg/kg/injection, schedule: Q01DX015 (sc), vehicle: steriod suspending solution 97 % of control | dose: 100.0 mg/kg/injection, schedule: Q01DX001 (sc), vehicle: steriod suspending solution 116 % of control | dose: 120.0 mg/kg/injection, schedule: Q01DX015 (sc), vehicle: steriod suspending solution 97 % of control | dose: 200.0 mg/kg/injection, schedule: Q01DX001 (sc), vehicle: steriod suspending solution 104 % of control | dose: 240.0 mg/kg/injection, schedule: Q01DX015 (sc), vehicle: steriod suspending solution 100 % of control | dose: 400.0 mg/kg/injection, schedule: Q01DX001 (sc), vehicle: steriod suspending solution 96 % of control

COC(=O)Cc1cc(OC)c(OC)cc1I
inactive: [14] 105 % of control | dose: 100.0 mg/kg/injection, schedule: Q01DX009 (ip), vehicle: saline 96 % of control | [15] 100 % of control | dose: 200.0 mg/kg/injection, schedule: Q01DX009 (ip), vehicle: saline 102 % of control | [16] 102 % of control | dose: 400.0 mg/kg/injection, schedule: Q01DX009 (ip), vehicle: saline 102 % of control

COc1cccc(C=NC2CC(C)CCC2C)c1OC (stereo not given)
inactive: dose: 50.0 mg/kg/injection, schedule: Q04DX002 (ip), vehicle: saline with Tween-80 90 % of control | dose: 100.0 mg/kg/injection, schedule: Q04DX002 (ip), vehicle: saline with Tween-80 93 % of control | dose: 200.0 mg/kg/injection, schedule: Q04DX002 (ip), vehicle: saline with Tween-80 87 % of control | dose: 400.0 mg/kg/injection, schedule: Q04DX002 (ip), vehicle: saline with Tween-80 90 % of control

CCOC(=O)C(=CC(CC)(C(=O)OCC)C(=O)OCC)C(=O)OCC
inactive: [14] 101 % of control | [15] 97 % of control | [16] 95 % of control

CC1(C)N=C(N)N=C(N)N1c1ccc(OCCCOc2ccccc2)c(Cl)c1
inactive: dose: 50.0 mg/kg/injection, schedule: Q01DX009 (ip), vehicle: Klucel (hydroxypropylcellulose) (HPC) 98 % of control | [8] 102 % of control | [17] 92 % of control | [19] 91 % of control

CC(=O)CCSC(C)C
inactive: [1] 89 % of control | [2] 92 % of control | [4] 92 % of control

COc1ccccc1NC(=S)N1CCC(CCCC2CCN(C(=S)Nc3ccccc3OC)CC2)CC1
inactive: [8] 92 % of control | [17] 91 % of control | [10] 87 % of control | [19] 89 % of control | [18] 88 % of control

CCOC(=O)C(C)(C)CCC(C)(C)C(=O)OCC
inactive: [9] 97 % of control | [11] 103 % of control | [13] 90 % of control

O=C1OC(=O)C2C3CC(C4OC34)C12 (stereo not given)
inactive: [3] 95 % of control | [5] 100 % of control | [7] 94 % of control

Cc1cscc(C)c1=S
inactive: dose: 6.25 mg/kg/injection, schedule: Q01DX009 (ip), vehicle: saline + alcohol 106 % of control | dose: 12.5 mg/kg/injection, schedule: Q01DX009 (ip), vehicle: saline + alcohol 105 % of control | dose: 25.0 mg/kg/injection, schedule: Q01DX009 (ip), vehicle: saline + alcohol 92 % of control

O=C(NO)c1ccccc1.O=C(NO)c1ccccc1.O=C(NO)c1ccccc1.[Fe]
inactive: dose: 100.0 mg/kg/injection, schedule: Q04DX003 (ip), vehicle: DMSO 93 % of control

C=CCc1cc(OC)c(OC)c(OC)c1
inactive: [2] 104 % of control | [4] 101 % of control | [6] 101 % of control

N/N=C(\N)N(Cc1ccccc1)c1ccccc1
inactive: dose: 7.5 mg/kg/injection, schedule: Q01DX001 (ip), vehicle: saline 94 % of control | dose: 7.5 mg/kg/injection, schedule: Q01DX009 (ip), vehicle: saline 96 % of control | dose: 7.5 mg/kg/injection, schedule: Q04DX003 (ip), vehicle: saline 97 % of control | dose: 15.0 mg/kg/injection, schedule: Q01DX001 (ip), vehicle: saline 92 % of control | dose: 15.0 mg/kg/injection, schedule: Q01DX009 (ip), vehicle: saline 94 % of control | dose: 15.0 mg/kg/injection, schedule: Q04DX003 (ip), vehicle: saline 95 % of control | dose: 30.0 mg/kg/injection, schedule: Q01DX001 (ip), vehicle: saline 100 % of control | dose: 30.0 mg/kg/injection, schedule: Q01DX009 (ip), vehicle: saline 102 % of control | dose: 30.0 mg/kg/injection, schedule: Q04DX003 (ip), vehicle: saline 97 % of control

CN(CCc1cn(C2OC(CO)C(O)C(O)C2O)cn1)C(=O)/C=C/c1ccccc1 (stereo not given)
inactive: dose: 100.0 mg/kg/injection, schedule: Q01DX005 (ip), vehicle: saline 112 % of control

CC(=O)/C(=C\c1ccccc1)c1ccccc1
inactive: [17] 96 % of control | [19] 91 % of control | [18] 98 % of control

Nc1cc(Cl)cc2c1-c1c(Cl)cc(Cl)cc1C2O (stereo not given)
inactive: [8] 102 % of control | [17] 102 % of control | [10] 100 % of control | [19] 105 % of control | [18] 97 % of control
